Source: patent publication US7906520B2, “Methods for treating pain” (The General Hospital Corporation, priority 2003, dated 2011)

Key:
[1] = tested on: SNI model of neuropathic pain; experiment: Spared nerve injury (SNI) model of neuropathic pain, von Frey and acetone tests; assay type: in vivo
Description: FIGS. 8A-8D represent a series of graphs showing the effect of DAHP on nociceptive behavior in the SNI model of neuropathic pain. Figures on the left show the threshold to mechanical stimuli applied with von Frey hairs (von Frey threshold). Figures on the right show the duration of paw licking, shaking and lifting following acetone application to the paw as a measure for cold allodynia. In FIG. 8A, rats were treated with DAHP (180 mg/kg/d i.p.) for three days starting three days after surgery (early treatment). Nociceptive behavior was assessed daily before and after drug injection. In FIG. 8B, the treatment period was extended to five days (180 mg/kg/d i.p.) starting three days after surgery and pain behavior was assessed daily before and after drug injection and once every second day for an additional week after stopping the daily drug injections. In FIG. 8C, treatment with DAHP (180 mg/kg/d i.p. for 5 days) was started 17 days after surgery i.e. in the chronic phase without any treatment in the early phase. Nociceptive behavior was assessed once daily 3 h after drug injection. In FIG. 8D, animals received a continuous spinal infusion of DAHP (6 mg/kg/d) for 14 days. The infusion was started directly after surgery. Nociceptive behavior was assessed once daily.
FIGS. 16A-16D show the effects of systemic (16A) and intrathecal (16B) treatment with methotrexate (MTX) on the nociceptive behavior in the SNI model of neuropathic pain. […] In FIG. 16A MTX (0.2 mg/kg/d) was injected i.p. once daily starting 5 days after SNI surgery. Nociceptive behavior was assessed once daily three hours after drug injection. In FIG. 16B, MTX was administered as continuous intrathecal infusion (0.1 mg/kg/d for 14 days) starting right after SNI surgery. Nociceptive behavior was assessed once daily. FIGS. 16C and 16D show the body weight gain of animals during systemic (16C) and intrathecal (16D) MTX treatment. Determination of the weight gain was used to assess general well-being and potential toxic effects of MTX.
In this graph, closed triangles represent vehicle, i.p.; open triangles represent DAHP at 90 mg/kg/day, i.p.; open squares represent DAHP at 180 mg/kg/day, i.p.; and open circles represent DAHP at 270 mg/kg/day, i.p.
All procedures were performed in accordance with Massachusetts General Hospital animal care regulations. Adult male Sprague Dawley rats (200-300 g) were anesthetized with halothane. For the sciatic nerve transection (axotomy), the left sciatic nerve was exposed at the mid thigh level, ligated with 3/0 silk, and sectioned distally. The wound was sutured in two layers, and the animals were allowed to recover. For SNI the tibial and peroneal branch of the sciatic nerve were ligated and transected whereas the sural nerve was spared. For CCI, the sciatic nerve was loosely ligated with dexon 4/0 (three ligatures) and for the spinal ligation model the L5 spinal segmental nerve was ligated.

[2] = tested on: CFA-induced paw inflammation; experiment: CFA model of inflammatory pain: Hargreaves test and paw weight; assay type: in vivo, rat
Description: FIGS. 11A-11E are a series of graphs showing the effect of DHAP on thermal hyperalgesia in the CFA model which is a model for inflammatory pain. […] On the left end of the graph, two doses of DAHP (180 mg/kg i.p.) were injected, the first 30 minutes before injection of CFA into the hindpaw, the second 4 hours after CFA (indicated with arrows D1 and D2). On the right, a single dose (dotted arrow D1) of DAHP (180 mg/kg i.p.) was injected 24 h after induction of paw inflammation without any treatment during the first 24 h following CFA injection. […] In FIGS. 11C-11D, the effects of systemically administered DAHP (180 mg/kg i.p. single dose; 11C) are compared with the effects of a single intrathecal dose (1 mg/kg i.t.; 11D) which was administered via a lumbar spinal catheter. In both cases, treatment was started 24 hours after CFA injection into the hindpaw. Because of slightly different baseline levels (11C compared with 11D) effects of DAHP after i.p. and i.t. treatment are additionally presented as percentage change of paw withdrawal latency (FIG. 11E) to allow for a direct comparison of both routes of administration.
FIG. 12 is a bar graph showing the increase of the paw weight of the inflamed paw compared with the contralateral paw. Paw weight was determined 48 hours following CFA injection. The increase of the paw weight is a measure for the inflammatory paw edema and therefore allows assessment of paw inflammation.
FIGS. 15A and 15B show the effect of the sepiapterin reductase inhibitor, N-acetyl-serotonin (NAS) on thermal hyperalgesia in the CFA model. The paw withdrawal latency (PWL) to radiant heat (Hargreaves test) is a measure for the heat sensitivity. NAS treatment (single dose of 50 mg/kg i.p.) was started 24 hours after CFA injection into the hindpaw. Data are presented as percentage change of the PWL compared with the PWL of the non-inflamed contralateral paw. […] Paw weight was determined 48 hours following CFA injection. The increase of the paw weight is a measure for the inflammatory paw edema.
Hypersensitivity was induced using the CFA model of paw inflammation. In these experiments, BH4 was injected at time “zero” after measurement of baseline paw withdrawal latency.

SNI model = experiment: SNI model, L-NAME versus DAHP; assay type: in vivo; conditions: DAHP 120 mg/kg i.p. single dose vs L-NAME 25 mg/kg i.p.
Description: (§1) In this figure, closed circles represent nNOS knockout mice with DAHP; open circles, nNOS knock out mice with vehicle; closed triangles, wild type mice with DAHP; and open triangles, wild type mice with vehicle. […] In this figure, closed triangles represent L-NAME administration; open circles, L-NAME+DAHP administration; closed circles, DAHP administration; and open triangles, vehicle administration. L-NAME was administered at 25 mg/kg, i.p., single dose, and DAHP was administered at 120 mg/kg, i.p., single dose. The antinociceptive efficacy of this high L-NAME dose is weaker (about 50%) than that of a moderate dose of DAHP.

[3] = tested on: SNI model, nNOS knockout mice; experiment: SNI model in nNOS knockout and wild-type mice; assay type: in vivo; conditions: mechanical or cold stimuli
Description: as §1

[4] = DAHP pharmacokinetics in plasma and CSF; assay type: in vivo, rat; conditions: single dose 180 mg/kg i.p.
Description: FIGS. 14A-14C represent a series of graphs showing pharmacokinetic features of DAHP and the pharmacokinetic-pharmacodynamic relationship. […] In addition, concentrations of DAHP in cerebrospinal fluid (CSF) were determined at an early and late time point. In FIG. 14B, plasma concentrations were fitted according to a one-compartment PK model with first order input and first order elimination. PK parameters are presented where Cmax is the maximum concentration, tmax the time of the maximum concentration, k01 is the absorption rate constant, t1/2abs. represents the absorption half-life, k10 is the elimination rate constant, t1/2 el is the elimination half-life, and Cl is the clearance. In FIG. 14C, pooled plasma concentration and effect data of the CFA model were used to assess the PK/PD relationship employing a standard sigmoidal Emax model.

[5] = DAHP 6 mg/kg/day continuous intrathecal infusion
[6] = DAHP 180 mg/kg/day i.p., started 3 or 17 days post-surgery, vs vehicle

In the case of `Nc1cc(O)nc(N)n1` [DAHP, 2,4-Diamino-6-hydroxypyrimidine], the cold allodynia [1, 5] is reported as “reduced”, the mechanical allodynia [1, 5] is reported as “reduced” and the “cold pain (cold allodynia, acetone)” value [1, 6] is reported as “reduction”. For the same compound, the “mechanical sensitivity (von Frey threshold)” value [1, 6] was “reduction in mechanical sensitivity”, the “dose-effect relationship, nociceptive response to mechanical or cold stimuli” value ([1]; DAHP 90, 180, 270 mg/kg/day i.p.) was “dose-dependent relationship” and the thermal hyperalgesia ([2]; DAHP 1 mg/kg i.t. via lumbar spinal catheter) was “reduced thermal hyperalgesia”. For the same compound, the “paw withdrawal latency of the non-inflamed contralateral paw” value ([2]; DAHP 180 mg/kg i.p.) was “no effect”, the thermal hyperalgesia ([2]; DAHP 180 mg/kg i.p., 30 min before or 24 h after CFA) was “reduced thermal hyperalgesia” and the “inflammatory paw edema (paw weight)” value ([2]; DAHP treated vs control, 48 hours after CFA) was “no difference in the degree of paw inflammation”. The “antinociceptive effect compared with L-NAME” value (SNI model) was “stronger antinociceptive effect”, the “anti-nociceptive effects in nNOS knockout vs wild-type mice” value [3] was “do not differ between nNOS knockout mice and wild-type mice” and the “distribution in cerebrospinal fluid” value [4] was “rapid distribution in the cerebrospinal fluid”. For the same compound, the “plasma concentration after i.p. injection” value [4] was “rapidly increased”.
